Laboratory results from US10828301B2, “2,4-pyrimidinediamine compounds and their uses” (Rigel Pharmaceuticals, Inc, priority 2002, dated 2020).

Experiments:
[1] = system: cultured human mast cells (CHMC); assay: CHMC low cell density IgE activation: tryptase and LTC4 assays; assay type: cell-based; conditions: read-out: CHMC anti-IgE Tryptase
Method in brief: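 Degranulation measured after 30 min anti-IgE challenge at 37° C of CHMC plated at 1000-1500 cells/well following 1 h preincubation. Readouts: LTC4 by ELISA on donor-specific diluted supernatants, and tryptase activity from a 30 min room-temperature substrate reaction.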

[2] = system: cultured human mast cells (CHMC); assay: CHMC low cell density ionomycin activation: tryptase assay; assay type: cell-based; conditions: read-out: CHMC Ionomycin Tryptase
[3] = Homo sapiens, Mast cell, Low Density CHMC, anti-IgE activation, tryptase readout
[4] = Homo sapiens, Mast cell, Low Density CHMC, ionomycin activation, tryptase readout

IC50 [1, 3] | IC50 [2, 4] | SMILES | other results
10 µM | > 10 µM | Cc1cc(O)cc(N(c2ccc3c(c2)OCCO3)c2nc(N)ncc2F)c1 [Compound R926893, N4-(3,4-Ethylenedioxyphenyl)-5-fluoro-N4-(3-hydroxy-5-methylphenyl)-2,4-pyrimidinediamine] | –
– | – | COC(=O)Cn1ncc2cc(Nc3ncc(F)c(Nc4ccc5c(c4)OCCO5)n3)ccc21 [Compound R935223, N4-(3,4-Ethylenedioxyphenyl)-5-fluoro-N2-[1-(methoxycarbonyl)methyl-indazoline-5-yl]-2,4-pyrimidinediamine] | IC50 ([1]; Low Density CHMC, anti-IgE activation, tryptase readout): 0.469 µM; IC50 ([2]; Low Density CHMC, ionomycin activation, tryptase readout): > 10 µM
1.84 µM | 99 µM | CN1C=COc2ccc(Nc3nc(Nc4cccc(O)c4)ncc3F)cc21 [Compound R908710, 5-Fluoro-N2-(3-hydroxyphenyl)-N4-(N-methyl-1,4-benzoxazin-6-yl)-2,4-pyrimidinediamine] | –
3.46 µM | 10 µM | CC(C)c1cccc(Nc2ncc(F)c(Nc3cccc(C(C)C)c3)n2)c1 [Compound R940297, N2,N4-Bis(3-isopropylphenyl)-5-fluoro-2,4-pyrimidinediamine] | –
0.439 µM | > 10 µM | NC(=O)C=Nc1cccc(Nc2ncc(F)c(Nc3cccc(O)c3)n2)c1 [Compound R950219, N2-(3-Aminocarbonylmethyleneaminophenyl)-5-fluoro-N4-(3-hydroxyphenyl)-2,4-pyrimidinediamine] | –
0.396 µM | > 10 µM | CNC(=O)c1cc2cc(Nc3ncc(F)c(Nc4cccc(C(C)(C)C)c4)n3)ccc2o1 [Compound R940291, N4-(3-tert-Butylphenyl)-5-fluoro-N2-[2-(N-methylamino)carbonylbenzofur-5-yl]-2,4-pyrimidinediamine] | –
> 10 µM | > 10 µM | Cc1ccc(-c2ccccc2)cc1Nc1ccnc(Nc2cc(-c3ccccc3)ccc2C)n1 [Compound R925807, N2,N4-Bis(2-methyl-5-phenylphenyl)-2,4-pyrimidinediamine] | –
5.42 µM | > 10 µM | CC(=O)Nc1cccc(OCCCNc2ncc(F)c(Nc3ccc4c(c3)OCCO4)n2)c1 [Compound R926787, N2-[3-(3-Acetamidophenoxy)propyl]-N4-(3,4-ethylenedioxyphenyl)-5-fluoro-2,4-pyrimidinediamine] | –
10 µM | > 10 µM | Oc1ccc(Nc2ncc(F)c(Nc3ccc(O)cc3F)n2)c(F)c1 [Compound R926683, N2,N4-Bis(2-fluoro-4-hydroxyphenyl)-5-fluoro-2,4-pyrimidinediamine] | –
1.83 µM | > 10 µM | CN1C=COc2cc(Nc3nc(Nc4cccc(O)c4)ncc3F)ccc21 [Compound R908707, 5-Fluoro-N2-(3-hydroxyphenyl)-N4-(N-methyl-1,4-benzoxazin-7-yl)-2,4-pyrimidinediamine] | –
> 10 µM | > 10 µM | CC(Nc1nc(Nc2cccc(O)c2)ncc1Br)c1ccc(F)cc1 (racemic) [Compound R935023, (±)-5-Bromo-N4-[1-(4-fluorophenyl)ethyl]-N2-(3-hydroxyphenyl)-2,4-pyrimidinediamine] | –
> 10 µM | > 10 µM | CCNC(=O)Nc1ccc(Nc2ncc(F)c(Nc3ccc(NC(=O)NCC)cc3)n2)cc1 [Compound R945040, N2,N4-Bis[4-(ethylaminocarbonylamino)phenyl]-5-fluoro-2,4-pyrimidinediamine] | –
3 µM | > 10 µM | CCOC(=O)c1nc(Nc2ccc3c(c2)OCCO3)nc(Nc2ccc3c(c2)OCCO3)c1[N+](=O)[O-] [Compound R925852, N2,N4-Bis(3,4-ethylendioxyphenyl)-6-ethoxycarbonyl-5-nitro-2,4-pyrimidinediamine] | –
– | – | O=[N+]([O-])c1cc(Nc2ncc(F)c(Nc3ccc(F)c([N+](=O)[O-])c3)n2)ccc1F [Compound R950148, N2,N4-Bis(4-fluoro-3-nitrophenyl)-5-fluoro-2,4-pyrimidinediamine] | IC50 ([1]; Homo sapiens, Mast cell): 2.27 µM; IC50 ([2]; Homo sapiens, Mast cell): > 10 µM
7.37 µM | > 10 µM | Fc1cnc(Nc2cccc(-c3nnn[nH]3)c2)nc1Nc1ccc2c(c1)OCCO2 [Compound R926843, 5-Fluoro-N4-(3,4-ethylenedioxyphenyl)-N2-[3-(tetrazol-5-yl)phenyl]-2,4-pyrimidinediamine] | –
0.217 µM | > 10 µM | O=C1COc2cc(Nc3ncc(F)c(Nc4cccc(O)c4)n3)ccc2N1 [Compound R908699, N2-(1,4-Benzoxazin-3-on-7-yl)-5-fluoro-N4-(3-hydroxyphenyl)-2,4-pyrimidinediamine] | –
0.922 µM | 4.25 µM | Fc1cnc(Nc2ccc(N3CCN(Cc4ccccc4)CC3)cc2)nc1Nc1ccc2c(c1)OCCO2 [Compound R945163, N2-[4-(N-Benzylpiperazino)phenyl]-N4-(3,4-ethylenedioxyphenyl)-5-fluoro-2,4-pyrimidinediamine] | –
10 µM | > 10 µM | O=C(O)c1ccc(Nc2ncc(F)c(Nc3ccc(C(=O)O)c(O)c3)n2)cc1O [Compound R945061, N2,N4-Bis(3-hydroxy-4-carboxyphenyl)-5-fluoro-2,4-pyrimidinediamine] | –
4.75 µM | > 10 µM | Oc1cccc(Nc2ncc(F)c(Nn3cccc3)n2)c1 [Compound R935278, 5-Fluoro-N2-(3-hydroxyphenyl)-N4-(1H-pyrrol-1-yl)-2,4-pyrimidinediamine] | –
> 10 µM | > 10 µM | CC(C)c1ccc(O)cc1Nc1ncc(F)c(Nc2cc(O)ccc2C(C)C)n1 [Compound R935077, N2,N4-Bis(5-hydroxy-2-isopropylphenyl)-5-fluoro-2,4-pyrimidinediamine] | –
1.38 µM | 6.3 µM | Nc1cc(Nc2ncc(F)c(Nc3ccc(Nc4ccccc4)c(N)c3)n2)ccc1Nc1ccccc1 [Compound R950125, N2,N4-Bis[3-amino-4-(N-phenylamino)-phenyl]-5-fluoro-2,4-pyrimidinediamine] | –
3.25 µM | 8.45 µM | Nc1cc(Nc2ccnc(Nc3ccc(Nc4ccccc4)c(N)c3)n2)ccc1Nc1ccccc1 [Compound R950123, N2,N4-Bis[3-amino-4-(N-phenylamino)-phenyl]-2,4-pyrimidinediamine] | –
> 10 µM | > 10 µM | CCOC(=O)Cc1ccc(Nc2ncc(C#N)c(Nc3ccc(CC(=O)OCC)cc3)n2)cc1 [Compound R926662, N2,N4-Bis[4-(ethoxycarbonylmethyl)phenyl]-5-cyano-2,4-pyrimidinediamine] | –
4.2 µM | > 10 µM | Cc1cnc(Nc2ccc3c(c2)OCCO3)nc1Nc1ccc2c(c1)OCCO2 [Compound R926242, N2,N4-Bis(3,4-ethylenedioxyphenyl)-5-methyl-2,4-pyrimidinediamine] | –
1.76 µM | > 10 µM | COc1cc(Nc2nc(Nc3cccc(OCCO)c3)ncc2F)cc(OC)c1 [Compound R935181, N4-(3,5-Dimethoxyphenyl)-5-fluoro-N2-[3-(2-hydroxyethoxy)phenyl]-2,4-pyrimidinediamine] | –
5.96 µM | > 10 µM | Oc1cccc(Nc2ncc(F)c(NCc3csc4ccc(Cl)cc34)n2)c1 [Compound R926722, N4-[(5-Chloro-1-benzothiophen-3-yl)methyl]-5-fluoro-N2-(3-hydroxyphenyl)-2,4-pyrimidinediamine] | –

SMILES | IC50 [1, 3] | IC50 [2, 4] | other results
Fc1cnc(Nc2ccc3cc[nH]c3c2)nc1Nc1ccc2cc[nH]c2c1 [Compound R926594, N2,N4-Bis(indol-6-yl)-5-fluoro-2,4-pyrimidinediamine] | > 10 µM | > 10 µM | –
